Laboratory results taken from article PMC9975698, “Hyperoside alleviates toxicity of β-amyloid via endoplasmic reticulum-mitochondrial calcium signal transduction cascade in APP/PS1 double transgenic Alzheimer's disease mice” (Redox Biology, 2023).

Columns and labels:
APP/PS1 mice [1] = assay: Nissl staining of hippocampus; format: in vivo; details: hippocampus CA3 and DG, vs APP/PS1 control group
Procedure: All animal care and experimental procedures were performed in accordance with the “Institutional Animal Care and User Committee Guidelines” of the Macau University of Science and Technology. APP/PSEN1 (APP/PS1) mice (N000175) were purchased from the Nanjing Institute of Biomedical Sciences, Nanjing University, China, weighing 25 ± 5 g. The animals were housed in a temperature-controlled room with a 12 h light/dark cycle and given ad libitum food and water. Male mice were randomly divided into the following 6 experimental groups. (a) wild-type group (n = 6), (b) APP/PS1 group (n = 6), (c) HYP (20 mg/kg group) (n = 7), (d) HYP (40 mg/kg) group (n = 8), (e) HYP (80 mg/kg) group (n = 8) and (f) memantine (MEM) (10 mg/kg) positive control group (n = 8). HYP was dissolved in the solvent containing 10% DMSO, 40% PEG300 and 5% Tween-80 in PBS, and administrated via nasal injection for every 3 days with a volume of 0.5 μL/g of body weight for 8 consecutive weeks. The CA1, CA3 and DG regions of the mouse hippocampus was assessed by Nissl staining for Nissl body detection. Brain sections were dehydrated as the same as in HE staining, followed by 1% tar violet staining for 1 h, and with distilled water washing followed by 70% alcohol separation for 1 min. Tissues were then dehydrated in 70%, 80% and 90% of alcohol. […]

APP/PS1 mice [2] = assay: Dot blot of Aβ forms in cortex and hippocampus lysates; format: in vivo
Procedure: 4 μL of prepared cell or animal sample protein solutions were dotted for adsorption onto methanol-pre-activated PVDF membranes and then blocked with 5% non-fat dry milk in Tris-buffered saline and Tween 20 for 1 h. The samples were incubated overnight at 4 °C with anti-amyloid fibril primary antibody [mOC87] (Abcam, MA, USA), anti-amyloid oligomer A11 (Invitrogen, CA, USA) or purified anti-β-amyloid (1–16) antibody (clone 6E10) (Biolegend, CA, USA) (1:1000), followed by HRP-conjugated secondary antibody. Protein bands were detected using Super Signal Sensitive ECL Western Blotting Detection Reagent (Beyotime, Beijing, China) and observed using a gel imaging device (Amersham Imager 800, GE, Tokyo, Japan). All animal care and experimental procedures were performed in accordance with the “Institutional Animal Care and User Committee Guidelines” of the Macau University of Science and Technology. APP/PSEN1 (APP/PS1) mice (N000175) were purchased from the Nanjing Institute of Biomedical Sciences, Nanjing University, China, weighing 25 ± 5 g. The animals were housed in a temperature-controlled room with a 12 h light/dark cycle and given ad libitum food and water. Male mice were randomly divided into the following 6 experimental groups. […]

APP/PS1 mice [3] = assay: Fear-conditioning test; format: in vivo; details: HYP nasal, every 3 days, 8 weeks
Procedure: All animal care and experimental procedures were performed in accordance with the “Institutional Animal Care and User Committee Guidelines” of the Macau University of Science and Technology. APP/PSEN1 (APP/PS1) mice (N000175) were purchased from the Nanjing Institute of Biomedical Sciences, Nanjing University, China, weighing 25 ± 5 g. The animals were housed in a temperature-controlled room with a 12 h light/dark cycle and given ad libitum food and water. Male mice were randomly divided into the following 6 experimental groups. (a) wild-type group (n = 6), (b) APP/PS1 group (n = 6), (c) HYP (20 mg/kg group) (n = 7), (d) HYP (40 mg/kg) group (n = 8), (e) HYP (80 mg/kg) group (n = 8) and (f) memantine (MEM) (10 mg/kg) positive control group (n = 8). HYP was dissolved in the solvent containing 10% DMSO, 40% PEG300 and 5% Tween-80 in PBS, and administrated via nasal injection for every 3 days with a volume of 0.5 μL/g of body weight for 8 consecutive weeks. The fear conditioning test measures the ability of mice to learn and remember associations between aversive experiences and the environment. On the first day of the fear conditioning test (Yuyan, Shanghai, China), mice were placed in a chamber for 5 min to acclimatize and explore. […] Responses were recorded with a video camera and scored for resting time, which was defined as the absence of any movement other than breathing.

HT22 cells = assay: Western blot of Bcl-2, Bax and cyto-c in HT22 cells; format: cell-based; details: HT22 cells co-treated with Aβ aggregates 30 μM and HYP, 24 h
Procedure: After HYP treatment, the cells were lysed with RIPA. Protein concentrations were determined by Bio-Rad protein assay (Bio-Rad Laboratories, CA, USA). After electrophoretic separation, the gels were blotted and stained with primary antibodies. Binding of antibodies was visualized with peroxidase-coupled secondary antibodies using ECL Western Blotting detection reagents (Invitrogen, Scotland, UK). Band intensities were quantified using ImageJ software. Data were obtained from three independent experiments.

## O=c1c(O[C@@H]2O[C@H](CO)[C@H](O)[C@H](O)[C@H]2O)c(-c2ccc(O)c(O)c2)oc2cc(O)cc(O)c12 [HYP, Quercetin-3-O-β-D-galactopyranoside]
APP/PS1 mice [1]
  density of neuronal cells (Nissl staining): density of neuronal cells in the CA3 and DG regions was higher
APP/PS1 mice [2]
  level of oligomeric, fibrillar and total Aβ (dot blot): reduced the level of both oligomeric and fibrillar form of Aβ, without altering the level of total Aβ
APP/PS1 mice [3]
  freezing time in fear conditioning test: significantly decreased the freezing time
HT22 cells
  ratio of Bax / Bcl-2 and level of cyto-c: ratio of Bax / Bcl-2 was decreased with the reduction in the level of cyto-c
